Common to all, as to format: binding
For test [1], the target named is T1, Adenosine Kinase (mADK) (Mus musculus, UniProt P55264, D310P).
T1 construct: gene Adk
Nature of the test: 2D […]-1H HSQC titration and 1D 1H STD NMR (weaker than wild type).

Test [2] concerns the target T2, Adenosine Kinase (mADK) (Mus musculus, UniProt P55264). The test is described as follows: 2D […]-1H HSQC titration and 1D 1H STD NMR. Details: gene Adk.
Target sequence in this assay (P55264 whole entry): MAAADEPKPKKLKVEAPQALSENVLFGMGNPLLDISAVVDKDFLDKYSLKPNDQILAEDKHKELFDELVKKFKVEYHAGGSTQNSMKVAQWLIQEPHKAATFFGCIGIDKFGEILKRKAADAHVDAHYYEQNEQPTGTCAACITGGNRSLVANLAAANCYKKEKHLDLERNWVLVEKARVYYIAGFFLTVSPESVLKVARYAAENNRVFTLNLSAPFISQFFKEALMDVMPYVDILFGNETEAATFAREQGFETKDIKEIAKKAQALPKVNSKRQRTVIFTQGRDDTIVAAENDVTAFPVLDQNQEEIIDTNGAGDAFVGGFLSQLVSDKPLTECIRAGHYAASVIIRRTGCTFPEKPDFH
Test [3] concerns the target T2, Adenosine Kinase (mADK). Nature of the test: X-ray crystal structure, […] Å binary complex (also the […] Å ternary complex 5KB5); kinetics show competitive inhibition against ATP. Details: gene Adk; Δ19mADK, Leu20 – Phe360 (binary complex); full-length mADK (ternary complex).
Target sequence in this assay (P55264 20-360): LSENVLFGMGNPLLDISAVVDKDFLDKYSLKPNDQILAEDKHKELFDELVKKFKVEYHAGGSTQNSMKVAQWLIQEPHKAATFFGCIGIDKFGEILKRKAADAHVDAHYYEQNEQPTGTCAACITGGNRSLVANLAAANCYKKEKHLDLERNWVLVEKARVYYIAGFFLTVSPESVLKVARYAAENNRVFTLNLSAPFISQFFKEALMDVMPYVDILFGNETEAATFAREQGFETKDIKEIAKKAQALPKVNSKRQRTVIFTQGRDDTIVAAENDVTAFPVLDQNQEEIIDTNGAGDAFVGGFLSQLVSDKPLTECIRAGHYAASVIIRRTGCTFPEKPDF
Test [4] concerns the target T2, Adenosine Kinase (mADK). The test is described as follows: X-ray crystal structure, […] Å ternary complex mADK:ADO:ADP. Details: gene Adk; full-length mADK (Met1 to His362); model residues 20 to 360.
Target sequence in this assay (P55264 whole entry): as the sequence (P55264 whole entry) above

The structures appear in SMILES notation.

T1 sequence (P55264 whole entry D310P): as the sequence (P55264 whole entry) above, with D310P counted along it

In the case of `Nc1ncnc2c1ncn2[C@@H]1O[C@H](CO[P@](=O)(O)O[P@](=O)(O)O[P@@](=O)(O)S)[C@@H](O)[C@H]1O` [ATPγS, adenosine triphosphate-gamma-S], the “2D 15N-1H HSQC titration and 1D 1H STD NMR (weaker than wild type)” value on Adenosine Kinase (mADK) [1] is 1D ^1H STD NMR indicate that the D310P mutant has an unfavorable interaction with ATPγS relative to the wild-type mADK. The “2D 15N-1H HSQC titration and 1D 1H STD NMR” value at Adenosine Kinase (mADK) [2] is on record as “ATPγS caused significant chemical shift changes in the wild-type mADK, especially in the residues around the BS1 site”.

For `Nc1ncnc2c1ncn2[C@@H]1O[C@H](CO)[C@@H](O)[C@H]1O` [ADO, adenosine], at Adenosine Kinase (mADK) [3], the “X-ray crystal structure, 1.2 Å binary complex (also the 1.8 Å ternary complex 5K)” value is given as “In the mADK:ADO complex, electronic density for ADO was identified in the BS1 site”.

Consider `Nc1ncnc2c1ncn2[C@@H]1O[C@H](COP(=O)(O)OP(=O)(O)O)[C@@H](O)[C@H]1O` [ADP, adenosine-5′-diphosphate], for which the “X-ray crystal structure, 1.8 Å ternary complex mADK:ADO:ADP” value at Adenosine Kinase (mADK) [4] is “In this complex, ADP occupies BS1”.
